Source: patent publication US12552772B2, “2-pyrazole anilines and related analogs for inhibiting YAP/TAZ-TEAD” (KATHOLIEKE UNIVERSITEIT LEUVEN, priority 2021, dated 2026)

These compounds were tested on YAP/TAZ-TEAD transcription (assay: Reporter gene assay for measuring the inhibition of YAP/TAZ-TEAD transcription (TEAD-responsive element luciferase reporter in Hek293T cells)). Details: Homo sapiens, HEK-293T, 24 hours incubation.
Format: cell-based
Method in brief: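 Hek293T cells transiently transfected with a TEAD-responsive element luciferase reporter were plated onto compounds and incubated 24 h at 37 °C/5% CO2. SteadyLite luminescence gave percent inhibition, normalised to vehicle (0%) and positive control inhibitor (100%); EC50 derived.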

Row | EC50 [nM] | Compound
1 | < 1000 | CNS(=O)(=O)CCNc1ccc(-c2ccc(Cl)cc2)cc1-c1ccn(Cc2cccnc2)n1 [compound 106, 2-((4′-chloro-3-(1-(pyridin-3-ylmethyl)-1H-pyrazol-3-yl)-[1,1′-biphenyl]-4-yl)amino)-N-methylethane-1-sulfonamide]
2 | > 20000 | O=S(=O)(O)CCNc1ccc(-c2ccc(Cl)cc2)cc1-c1ccn(Cc2cccnc2)n1 [compound 107, 2-((4′-chloro-3-(1-(pyridin-3-ylmethyl)-1H-pyrazol-3-yl)-[1,1′-biphenyl]-4-yl)amino)ethane-1-sulfonic acid]
3 | > 20000 | Cn1ccc(-c2ccc(NCCS(=O)(=O)O)c(-c3ccn(Cc4cccnc4)n3)c2)n1 [compound 109, 2-((4-(1-methyl-1H-pyrazol-3-yl)-2-(1-(pyridin-3-ylmethyl)-1H-pyrazol-3-yl)phenyl)amino)ethane-1-sulfonic acid]
4 | < 1000 | CNS(=O)(=O)CCNc1ccc(-c2ccc(OC)cc2)cc1-c1ccn(Cc2cccnc2)n1 [compound 111, 2-((4′-methoxy-3-(1-(pyridin-3-ylmethyl)-1H-pyrazol-3-yl)-[1,1′-biphenyl]-4-yl)amino)-N-methylethane-1-sulfonamide]
5 | 1000 to 20000 | CNS(=O)(=O)CCNc1ccc(-c2ccccn2)cc1-c1ccn(Cc2cccnc2)n1 [compound 114, N-methyl-2-((4-(pyridin-2-yl)-2-(1-(pyridin-3-ylmethyl)-1H-pyrazol-3-yl)phenyl)amino)ethane-1-sulfonamide]

Continued, compound first:

Row | Compound | EC50 [nM]
6 | CNS(=O)(=O)CCNc1ccc(-c2cnn(C)c2)cc1-c1ccn(Cc2cccnc2)n1 [compound 108, N-methyl-2-((4-(1-methyl-1H-pyrazol-4-yl)-2-(1-(pyridin-3-ylmethyl)-1H-pyrazol-3-yl)phenyl)amino)ethane-1-sulfonamide] | 1000 to 20000
7 | COc1ccc(-c2ccc(NCCS(=O)(=O)F)c(-c3ccn(Cc4cccnc4)n3)c2)cc1 [compound 110, 2-((4′-methoxy-3-(1-(pyridin-3-ylmethyl)-1H-pyrazol-3-yl)-[1,1′-biphenyl]-4-yl)amino)ethane-1-sulfonyl fluoride] | 1000 to 20000
8 | CNS(=O)(=O)CCNc1ccc(-c2ccc(C(F)(F)F)cc2)cc1-c1ccn(CCO)n1 [compound 112, 2-((3-(1-(2-hydroxyethyl)-1H-pyrazol-3-yl)-4′-(trifluoromethyl)-[1,1′-biphenyl]-4-yl)amino)-N-methylethane-1-sulfonamide] | < 1000
9 | CNS(=O)(=O)CCNc1ccc(-c2ccccc2)cc1-c1ccn(Cc2cccc(C(N)=O)c2)n1 [compound 113, 3-((3-(4-((2-(N-methylsulfamoyl)ethyl)amino)-[1,1′-biphenyl]-3-yl)-1H-pyrazol-1-yl)methyl)benzamide] | < 1000
10 | CNS(=O)(=O)CCNc1ccc(Cc2ccccc2)cc1-c1ccn(Cc2cccnc2)n1 [compound 115, 2-((4-benzyl-2-(1-(pyridin-3-ylmethyl)-1H-pyrazol-3-yl)phenyl)amino)-N-methylethane-1-sulfonamide] | < 1000
11 | CNS(=O)(=O)CCNc1ccc(Nc2ccccc2)cc1-c1ccn(Cc2cccnc2)n1 [compound 116, N-methyl-2-((4-(phenylamino)-2-(1-(pyridin-3-ylmethyl)-1H-pyrazol-3-yl)phenyl)amino)ethane-1-sulfonamide] | < 1000
12 | CNS(=O)(=O)CCNc1ccc(-c2cccc(C(F)(F)F)c2)cc1-c1ccn(C)n1 [compound 120] | < 1000
13 | CNS(=O)(=O)CCNc1ccc(-c2cccc(Cl)c2)cc1-c1ccn(C)n1 [compound 122, 2-((3′-chloro-3-(1-methyl-1H-pyrazol-3-yl)-[1,1′-biphenyl]-4-yl)amino)-N-methylethane-1-sulfonamide] | < 1000
14 | CNS(=O)(=O)CCNc1ccc(-c2cc(F)ccc2F)cc1-c1ccn(C)n1 [compound 123, 2-((2′,5′-difluoro-3-(1-methyl-1H-pyrazol-3-yl)-[1,1′-biphenyl]-4-yl)amino)-N-methylethane-1-sulfonamide] | < 1000
